19 compounds from the supplement of paper PMC5412046 can be followed below.

The structures appear in SMILES notation. Counter-ions that a name gives are not always drawn.

Test [1] has as its system SB.msgc-1. Briefly: AC50 for growth inhibition (viability) (log10 M); higher = less potent. The conditions noted are these: SB.msgc-1 (sporadic gastric cancer). The procedure, abridged: (§1)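 Hereditary or sporadic patient-derived gastric cancer cells (500 cells in 5 μL medium per 1536 well) received 23 nL compound in DMSO by pintool. Dosing was 11 threefold dilutions starting at a final 46 μM. After 48 h, CellTiter-Glo was added for 30 min at room temperature and luminescence read on a ViewLux. Log half-maximal activity concentration came from a four-parameter fit of DMSO-normalised viability, keeping only high-quality curve classes.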

In test [2] the test system is SB.mhdgc-1. The test is described as above. The settings on record: SB.mhdgc-1 (hereditary c.1380delA CDH1 gastric cancer). The procedure, abridged:
as §1

`Cc1cnc(NC(=O)Nc2cc(Br)c(C)cc2OC[C@@H]2CNCCO2)cn1` [Rabusertib]: the “AC50 for growth inhibition (log10 M)” value in test [1] was -5.88; in test [2] it was -4.88.
On the same counts, the results for `COc1cc(C[C@@H](CO)[C@H](CO)Cc2ccc(O)c(OC)c2)ccc1O` [Secoisolariciresinol] are -6.63 and -6.38.
For `N[S+](=O)([O-])c1ccc(Nc2nc(OCC3CCCCC3)c3[nH]cnc3n2)cc1` [NU-6102], the results for the “AC50 for growth inhibition (log10 M)” value in test [1] and in test [2] were -4.83 and -4.68, respectively.
On the same counts, the results for `CC(=O)N1CCN(c2ccc(OCc3nn(C)c(C)c3-c3cccc4c(CCCOc5cccc6ccccc56)c(C(=O)O)n(Cc5cccnc5)c34)cc2)CC1` are -5.63 and -5.63.
On to `COc1cc2nc(N3CCCN(C)CC3)nc(NC3CCN(Cc4ccccc4)CC3)c2cc1OC`, for which the “AC50 for growth inhibition (log10 M)” value in test [1] was -4.88; in test [2], -5.28.
For the compound `CCC(C1CCC(C)C(O1)C(C)C(O)C(C)C(=O)C(CC)C2OC\3(O[C@]4(CC[C@@](C)(O4)C5CC[C@@](O)(CC)C(C)O5)C(O)\C=C3)C(C)CC2C)C([O-])=O` (stereo partly drawn) [Salinomycin], the “AC50 for growth inhibition (log10 M)” value in test [1] was -6.58; in test [2] it was -6.28.
Regarding `C[C@]\12CC[C@H](O)CC1=C/CC3C2CC[C@@]\4(C)C3C\C=C4[N]5C=NC6=C5C=CC=C6` (stereo partly drawn) [Galeterone], the “AC50 for growth inhibition (log10 M)” value in test [1] and in test [2] was -4.68 throughout.
With `CN1CCc2c(c3ccccc3n2Cc2ccc(C(=O)NO)cc2)C1` [Tubastatin A], the figures for the “AC50 for growth inhibition (log10 M)” value in test [1] and in test [2] were -4.68 and -4.63, respectively.
As to `CCCCN(CCCC)CCC(O)c1cc2c(Cl)cc(Cl)cc2c2cc(C(F)(F)F)ccc12` (stereo not drawn) [Halofantrine], the “AC50 for growth inhibition (log10 M)” value is -4.73 in test [1] and -4.68 in test [2].
Take `CNCC[C@H](Oc1cccc2ccccc12)c1cccs1` [Duloxetine hydrochloride]: the “AC50 for growth inhibition (log10 M)” value in test [1] is -5.58; in test [2], -5.53.
As for `CC(C)Cn1cnc2c(N)nc3ccccc3c21` [Imiquimod], the “AC50 for growth inhibition (log10 M)” value is -4.73 in test [1] and -5.93 in test [2].
In the case of `CC[C@H]1CN2CCc3cc(OC)c(OC)cc3[C@@H]2C[C@@H]1C[C@H]1NCCc2cc(OC)c(OC)cc21` [Emetine], the “AC50 for growth inhibition (log10 M)” value in test [1] was -6.83; in test [2] it was -5.68.
On to `Clc1cc(Cl)cc(CNc2ncncc2-c2ccc3c(c2)OCO3)c1`, for which the “AC50 for growth inhibition (log10 M)” value in test [1] was -4.78; in test [2] it was -5.28.
As to `O=C1c2c(O)cc(O)cc2O[C@H](c2cc(O)c(O)c(O)c2)[C@H]1O` [Dihydromyricetin], the “AC50 for growth inhibition (log10 M)” value in test [1] was -5.23; in test [2] it was -5.33.
On the same counts, the results for `CCOc1ccccc1N/N=C1/C(=O)N(c2nc(-c3ccccc3)cs2)N=C1C` [BAM7] are -5.48 and -5.48.
As to `O=C(Nc1ccncc1)C(=O)c1cn(Cc2ccc(Cl)cc2)c2ccccc12` [Indibulin], the “AC50 for growth inhibition (log10 M)” value was -5.68 in test [1] and -6.28 in test [2].
Take `Nc1ccc(C(=O)c2cc3c(ccc4ccccc43)[nH]2)cc1` [IPFK2]: the “AC50 for growth inhibition (log10 M)” value in test [1] was -5.33; in test [2] it was -4.73.
`CC(=O)C\1=C(/C)C2=CN=C(NC3=CC=C(C=N3)N4CCNCC4)N=C2N(C5CCCC5)C1=O`: the “AC50 for growth inhibition (log10 M)” value in test [1] was -4.73; in test [2], -4.93.
In the case of `CC#C[C@]1(O)CC[C@H]2[C@@H]/3CCC/4=C/C(=O)CCC4=C3[C@H](C[C@]12C)C5=CC=C(C=C5)N(C)C` [Mifepristone], the “AC50 for growth inhibition (log10 M)” value is -6.63 in test [1] and -7.23 in test [2].
